Series [1] in a line: long term (28 day) toxicity exposure. In kind it is in vivo. The settings on record: 28 day exposure.
Series [2] can be described thus: normal boiling point.
Series [3] can be described thus: miscibility with mineral oil. In kind it is physicochemical. The note with it: for Miscibility: with mineral oil, concentration up to which miscible. The source says: In addition, the compounds of the present invention have good miscibility with lubricants, including lubricants used in vapour compression refrigeration systems. For example, the Compounds 1 and 3 are fully miscible with e mineral oil at concentrations up to about 66.7 weight percent as indicated in the following table.

A short description of series [4]: flash point (ASTM D3828). The series is classed as physicochemical. As for the experimental part: Flash Point refers the lowest temperature at which vapors of the liquid will […] as determined in accordance with ASTM D3828.
Non-flammable in the context of a thermal management composition or fluid means compounds or compositions which are determined to be non-flammable. The flash point of a thermal management composition or fluid refers the lowest temperature at which vapors of the composition will keep burning after the ignition source is removed as determined in accordance with ASTM D3828.

A short description of series [5]: short term (4 hour) toxicity exposure. The series is classed as in vivo. The note with it: 4 hour exposure. An excerpt: LC50 is a measure of the acute toxicity of a compound. The acute inhalation toxicity of a compound can be assessed using the method described in the OECD Guideline for Testing of Chemicals No. 403 “Acute Inhalation Toxicity” (2009), Method B.2. (Inhalation) of Commission Regulation (EC) No. 440/2008.

A short description of series [6]: heat of vaporization. The series is classed as physicochemical.

The source of these data is patent US20240376363A1, “FLUORINE SUBSTITUTED CYCLOBUTENE COMPOUNDS, AND COMPOSITIONS, METHODS AND USES INCLUDING SAME” (HONEYWELL INTERNATIONAL INC., priority 2021, published 2024).

As for `FC1=C(Cl)CC1(F)F` [Compound 1, 1-chloro-2,3,3-trifluorocyclo-1-ene], in series [1], the “long term (28 day) toxicity exposure” value was “failed”. Further, the “Normal Boiling Point” value in series [2] was found to be 52 °C. Besides, the Miscibility entry in series [3] is “Miscible up to 66.7%”. The “Flash Point” value in series [4] is recorded as “No flash point”.

Regarding `FC1=CCC1(F)F` [Compound 2, 1,4,4-trifluorocyclobut-1-ene], in series [2], the “Normal Boiling Point” value was determined as 32 °C. Further, the “Miscibility with mineral oil” value in series [3] (ratio compound to mineral oil) was “Not miscible”. In series [4], the “Flash Point” value is “Flash point observed”.

On to `FC1(F)C(Cl)=C(Cl)C1(F)F` [Compound 3, 1,2-dichloro-3,3,4,4-tetrafluorocyclobut-1-ene], for which, in series [5], the “short term (4 hour) toxicity exposure” value is on record as “failed”. Further, in series [2], the “Normal Boiling Point” value was 58 °C. In addition, the Miscibility entry in series [3] was “Miscible up to 66.7%”. Also, in series [4], the “Flash Point” value is on record as “No flash point”.

As to `COC1=C(Cl)C(F)(F)C1(F)F` [Compound 4], the “Normal Boiling Point” value in series [2] worked out at 110 °C.

Take `COC1=C(OC)C(F)(F)C1(F)F` [Compound 11, 3,3,4,4-tetrafluoro-1,2-dimethoxycyclobut-1-ene]: the “Normal Boiling Point” value in series [2] was found to be 127 °C.

`FC(F)(F)OC1=C(OC(F)(F)F)C(F)(F)C1(F)F` [Compound 13] came in with a Heat of Vaporization in series [6] of 7.65 kcal/mol. Moreover, in series [2], the “Normal Boiling Point” value was found to be 144 °C.

As to `FC1=C(OC(C(F)(F)F)C(F)(F)F)C(F)(F)C1(F)F` [Compound 14, 1,3,3,4,4-pentafluoro-2-((1,1,1,3,3,3-hexafluoropropan-2-yl)oxy)cyclobut-1-ene], the Heat of Vaporization in series [6] is 7.41 kcal/mol.

As for `FC(F)(F)C(OC1=C(OC(C(F)(F)F)C(F)(F)F)C(F)(F)C1(F)F)C(F)(F)F` [Compound 15, 3,3,4,4-pentafluoro-1,2-bis((1,1,1,3,3,3-hexafluoropropan-2-yl)oxy) cyclobut-1-ene], the Heat of Vaporization in series [6] was 8.13 kcal/mol.

As for `FC1=C(Oc2ccccc2)C(F)(F)C1(F)F` [Compound 16, ((perfluorocyclobut-1-en-1-yl)oxy)benzene], the Heat of Vaporization in series [6] was determined as 10 kcal/mol.

As for `FC1(F)C(Oc2ccccc2)=C(Oc2ccccc2)C1(F)F` [Compound 17, ((perfluorocyclobut-1-ene-1,2-diyl)bis(oxy))dibenzene], the Heat of Vaporization in series [6] amounted to 17.9 kcal/mol.

In turn, `FC(F)(F)COC1=C(Cl)C(F)(F)C1(F)F` [Compound 18, 1-chloro-3,3,4,4-tetrafluoro-2-(2,2,2-trifluoroethoxy) cyclobut-1-ene] gave a Heat of Vaporization in series [6] of 9.08 kcal/mol.
